Experiments:
VEGFR2 = biological target: T1, VEGFR2 (Homo sapiens, UniProt P35968); experiment: HTScan Receptor Kinase Assay, VEGFR2 tyrosine kinase; format: biochemical; settings: human VEGFR2 kinase domain, 200 μM ATP
T1 construct: GST (N); HIS6 (N); Thrombin cleavage site (N); purchased Cell Signaling Technologies; host or cells: baculovirus expression system
Description: (§1) Immediately transfer enzyme from −80° C. to ice. Allowed enzyme to thaw on ice. […] Returned immediately to ice. […] Incubated reaction plate at room temperature for 30 minutes. […] Added 100 μl/well primary antibody. Incubated at room temperature for 60 minutes. […] Added 100 μl/well diluted antibody. Incubated at room temperature for 30 minutes. […] Incubated at room temperature for 5 minutes.
(§2) The following TABLE B lists compounds representative of the invention and their activity in HDAC, VEGFR2 and PDGFR assays.

HDAC = HDAC fluorimetric assay kit (AK-500, Biomol), HeLa nuclear extract; format: biochemical; settings: Fluor de Lys substrate
Description: HDAC inhibitors were screened using an HDAC fluorimetric assay kit (AK-500, Biomol, Plymouth Meeting, Pa.). […] Each assay was setup as follows: Defrosted all kit components and kept on ice until use. Diluted HeLa nuclear extract 1:29 in Assay Buffer (50 mM Tris/Cl, pH 8.0, 137 mM NaCl, 2.7 mM KCl, 1 mM MgCl2). Prepared dilutions of Trichostatin A (TSA, positive control) and tested compounds in assay buffer (5× of final concentration). Diluted Fluor de Lys™ Substrate in assay buffer to 100 uM (50 fold=2× final). Diluted Fluor de Lys™ developer concentrate 20-fold (e.g. 50 μl plus 950 μl Assay Buffer) in cold assay buffer. Second, diluted the 0.2 mM Trichostatin A 100-fold in the 1× Developer (e.g. 10 μl in 1 ml; final Trichostatin A concentration in the 1× Developer=2 μM; final concentration after addition to HDAC/Substrate reaction=1 μM). Added Assay buffer, diluted trichostatin A or test inhibitor to appropriate wells of the microtiter plate. Added diluted HeLa extract or other HDAC sample to all wells except for negative controls. Allowed diluted Fluor de Lys™ Substrate and the samples in the microtiter plate to equilibrate to assay temperature (e.g. 25 or 37° C. Initiated HDAC reactions by adding diluted substrate (25 μl) to each well and mixing thoroughly. Allowed HDAC reactions to proceed for 1 hour and then stopped them by addition of Fluor de Lys™ Developer ([…]). Incubated plate at room temperature (25° C.) for 10-15 min. Read samples in a microtiter-plate reading fluorimeter capable of excitation at a wavelength in the range 350-380 nm and detection of emitted light in the range 440-460 nm.
as §2

PDGFR-beta = biological target: T2, PDGFR-beta (Homo sapiens, UniProt P09619); experiment: HTScan Receptor Kinase Assay, PDGFR-beta tyrosine kinase; format: biochemical; settings: human PDGFR-beta kinase fragment, 200 μM ATP
T2 construct: GST (N); HIS6 (N); Thrombin cleavage site (N); purchased Cell Signaling Technologies; host or cells: baculovirus expression system
T2 sequence (P09619 561-1106): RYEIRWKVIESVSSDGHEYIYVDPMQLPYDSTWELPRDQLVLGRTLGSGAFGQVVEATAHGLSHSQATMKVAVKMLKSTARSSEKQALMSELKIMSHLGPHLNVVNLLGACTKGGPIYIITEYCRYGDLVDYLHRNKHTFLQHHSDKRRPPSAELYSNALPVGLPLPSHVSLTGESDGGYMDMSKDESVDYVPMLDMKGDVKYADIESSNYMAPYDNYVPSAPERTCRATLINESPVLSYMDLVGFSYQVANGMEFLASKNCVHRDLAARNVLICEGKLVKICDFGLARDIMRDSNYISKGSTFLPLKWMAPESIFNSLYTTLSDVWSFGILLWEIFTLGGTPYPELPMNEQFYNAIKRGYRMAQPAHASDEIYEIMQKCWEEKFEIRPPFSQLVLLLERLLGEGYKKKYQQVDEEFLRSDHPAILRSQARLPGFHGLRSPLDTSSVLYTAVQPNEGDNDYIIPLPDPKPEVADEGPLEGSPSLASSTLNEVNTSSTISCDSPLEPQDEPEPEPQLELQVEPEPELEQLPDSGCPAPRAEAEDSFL
Description: as §1, §2

T1 sequence (P35968 807-1356 limits assumed): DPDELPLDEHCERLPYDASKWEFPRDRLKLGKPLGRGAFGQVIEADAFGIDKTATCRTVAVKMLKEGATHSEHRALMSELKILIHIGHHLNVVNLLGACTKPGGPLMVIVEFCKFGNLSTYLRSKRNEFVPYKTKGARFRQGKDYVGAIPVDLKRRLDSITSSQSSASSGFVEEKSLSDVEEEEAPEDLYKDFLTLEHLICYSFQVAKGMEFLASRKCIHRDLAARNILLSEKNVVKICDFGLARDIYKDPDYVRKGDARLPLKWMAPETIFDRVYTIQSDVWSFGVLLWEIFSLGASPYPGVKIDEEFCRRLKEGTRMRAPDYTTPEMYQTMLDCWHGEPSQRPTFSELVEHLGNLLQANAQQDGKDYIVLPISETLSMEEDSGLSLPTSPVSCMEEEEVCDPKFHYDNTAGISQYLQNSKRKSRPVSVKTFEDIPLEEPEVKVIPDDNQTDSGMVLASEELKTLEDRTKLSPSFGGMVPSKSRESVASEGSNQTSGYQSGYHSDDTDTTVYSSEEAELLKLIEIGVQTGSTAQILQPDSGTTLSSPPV

Structure (SMILES)	melting point	IC50 (VEGFR2)	IC50 (HDAC)	IC50 (PDGFR-beta)
Cc1[nH]c(/C=C2\C(=O)Nc3ccc(F)cc32)c(C)c1C(=O)NCCCCCC(=O)NO [Compound 4, N-(5-(hydroxycarbamoyl)pentyl)-5-((Z)-(5-fluoro-2-oxoindolin-3-ylidene)methyl)-2,4-dimethyl-1H-pyrrole-3-carboxamide]	209.7 °C (dec.)	< 100 nM	100 to 1000 nM	< 100 nM
Cc1[nH]c(/C=C2\C(=O)Nc3ccc(F)cc32)c(C)c1C(=O)NCCOc1ccc(C(=O)NO)cc1 [Compound 8, (Z)-5-((5-fluoro-2-oxoindolin-3-ylidene)methyl)-N-(2-(4-(hydroxycarbamoyl)phenoxy)ethyl)-2,4-dimethyl-1H-pyrrole-3-carboxamide]	–	–	100 to 1000 nM	–
Cc1[nH]c(/C=C2\C(=O)Nc3ccc(F)cc32)c(C)c1C(=O)NCCCCCC(=O)N(C)O [Compound 9, (Z)-5-((5-fluoro-2-oxoindolin-3-ylidene)methyl)-N-(6-(hydroxy(methyl)amino)-6-oxohexyl)-2,4-dimethyl-1H-pyrrole-3-carboxamide]	–	< 100 nM	> 10000 nM	–
Cc1[nH]c(/C=C2\C(=O)Nc3ccc(F)cc32)c(C)c1C(=O)NCCCCCCCC(=O)NO [Compound 16, (Z)-5-((5-Fluoro-2-oxoindolin-3-ylidene)methyl)-N-(8-(hydroxyamino)-8-oxooctyl)-2,4-dimethyl-1H-pyrrole-3-carboxamide]	213.7 °C (dec.)	< 100 nM	< 100 nM	100 to 1000 nM
Cc1[nH]c(/C=C2\C(=O)Nc3ccc(F)cc32)c(C)c1C(=O)NCCCCCCC(=O)NO [Compound 15, (Z)-5-((5-Fluoro-2-oxoindolin-3-ylidene)methyl)-N-(7-(hydroxyamino)-7-oxoheptyl)-2,4-dimethyl-1H-pyrrole-3-carboxamide]	221 °C (dec.)	< 100 nM	< 100 nM	100 to 1000 nM
Cc1[nH]c(/C=C2\C(=O)Nc3ccc(F)cc32)c(C)c1C(=O)NCCOc1ccc(/C=C/C(=O)NO)cc1 [Compound 14, 5-((Z)-(5-fluoro-2-oxoindolin-3-ylidene)methyl)-N-(2-(4-((E)-3-(hydroxyamino)-3-oxoprop-1-enyl)phenoxy)ethyl)-2,4-dimethyl-1H-pyrrole-3-carboxamide]	–	< 100 nM	100 to 1000 nM	–
Cc1[nH]c(/C=C2\C(=O)Nc3ccc(F)cc32)c(C)c1C(=O)NCCCC(=O)NO [Compound 3, N-(3-(hydroxycarbamoyl)propyl)-5-((Z)-(5-fluoro-2-oxoindolin-3-ylidene)methyl)-2,4-dimethyl-1H-pyrrole-3-carboxamide]	–	< 100 nM	1000 to 10000 nM	< 100 nM
Cc1[nH]c(/C=C2\C(=O)Nc3ccc(F)cc32)c(C)c1C(=O)NCCC(=O)NO [Compound 2, N-(2-(hydroxycarbamoyl)ethyl)-5-((Z)-(5-fluoro-2-oxoindolin-3-ylidene)methyl)-2,4-dimethyl-1H-pyrrole-3-carboxamide]	–	< 100 nM	100 to 1000 nM	100 to 1000 nM
